Test results reported in ChEMBL document CHEMBL1201862, “PubChem BioAssay data set” (2004).
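Briefly, cells in 96-well plates were exposed to five compound concentrations for 48 h, and endpoints were estimated by linear interpolation. At the GI50, growth is halved.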 The source made the active and inactive calls. Rule as the data show it: active = GI50 up to about 1.1 µM and inactive = higher.

Assays:
Experiment in all cases: inhibition of tumour cell growth, NCI panel, 48 h
NCI-H460 = tested on: NCI-H460
CCRF-CEM = tested on: CCRF-CEM
TK-10 = tested on: TK-10
UACC-257 = tested on: UACC-257
HOP-92 = tested on: HOP-92
OVCAR-5 = tested on: OVCAR-5
UO-31 = tested on: UO-31
RPMI-8226 = tested on: RPMI-8226
SNB-19 = tested on: SNB-19
K562 = tested on: K562
OVCAR-3 = tested on: OVCAR-3
NCI-H23 = tested on: NCI-H23
SW-620 = tested on: SW-620
Malme-3M = tested on: Malme-3M
T47D = tested on: T47D
U-251 = tested on: U-251
MCF7 = tested on: MCF7
OVCAR-8 = tested on: OVCAR-8
COLO 205 = tested on: COLO 205
PC-3 = tested on: PC-3

Row | Structure (SMILES) | GI50 (NCI-H460) | GI50 (CCRF-CEM) | GI50 (TK-10) | GI50 (UACC-257) | GI50 (HOP-92) | GI50 (OVCAR-5) | GI50 (UO-31) | GI50 (RPMI-8226) | GI50 (SNB-19) | GI50 (K562) | GI50 (OVCAR-3) | GI50 (NCI-H23) | GI50 (SW-620) | GI50 (Malme-3M) | GI50 (T47D) | GI50 (U-251) | GI50 (MCF7) | GI50 (OVCAR-8) | GI50 (COLO 205) | GI50 (PC-3)
1 | CCOC(=O)NC(NCC(O)c1ccccc1)(C(F)(F)F)C(F)(F)F (stereo not given) | > 100 µM (inactive) | > 100 µM (inactive) | > 100 µM (inactive) | > 100 µM (inactive) | > 100 µM (inactive) | > 100 µM (inactive) | > 100 µM (inactive) | > 100 µM (inactive) | > 100 µM (inactive) | > 100 µM (inactive) | > 100 µM (inactive) | > 100 µM (inactive) | > 100 µM (inactive) | > 100 µM (inactive) | > 100 µM (inactive) | > 100 µM (inactive) | > 100 µM (inactive) |  |  | 
2 | COc1cc2c(c(OC)c1OC)-c1ccc(SC)c(=O)cc1[C@@H](O)CC2 | 0.000586 µM (active) | 0.00031 µM (active) | > 1 µM (active) | 0.0252 µM (active) |  | 0.0069 µM (active) | 0.0208 µM (active) |  | 0.00104 µM (active) | 0.00948 µM (active) |  | 0.000803 µM (active) | 0.000333 µM (active) | 0.00021 µM (active) | > 1 µM (active) | 0.000378 µM (active) | 0.000386 µM (active) | 0.00107 µM (active) | 0.000408 µM (active) | 0.000353 µM (active)
3 | CCc1ccccc1NC(=O)/C=C/c1ccccc1 | > 100 µM (inactive) | > 100 µM (inactive) | > 100 µM (inactive) | > 100 µM (inactive) |  | > 100 µM (inactive) |  | > 100 µM (inactive) | > 100 µM (inactive) | > 100 µM (inactive) | > 100 µM (inactive) | > 100 µM (inactive) | > 100 µM (inactive) | > 100 µM (inactive) | > 100 µM (inactive) | 85.9 µM (inactive) | > 100 µM (inactive) | > 100 µM (inactive) | > 100 µM (inactive) | > 100 µM (inactive)
4 | CN1CN(c2ccccc2)C2(CCN(CCC3COc4ccccc4O3)CC2)C1=O (stereo not given) |  | 17.9 µM (inactive) | 17.7 µM (inactive) | 12.5 µM (inactive) |  | 18.6 µM (inactive) | 13.5 µM (inactive) | 17.8 µM (inactive) | 19.9 µM (inactive) | 20.1 µM (inactive) | 19.9 µM (inactive) | 30.4 µM (inactive) | 22 µM (inactive) | 19.5 µM (inactive) | 4.65 µM (inactive) | 27.5 µM (inactive) | 5.27 µM (inactive) | 32.9 µM (inactive) | 5.6 µM (inactive) | 27.8 µM (inactive)
5 | CC(C)CCCC(=O)CCCCCCC(=O)CCN(O)C(=O)C(N)CO (stereo not given) |  | 4.62 µM (inactive) | 14.7 µM (inactive) | 17.3 µM (inactive) |  | 19.8 µM (inactive) | 12.2 µM (inactive) | 21.7 µM (inactive) | 22.5 µM (inactive) | 28.3 µM (inactive) | 17.3 µM (inactive) | 15.1 µM (inactive) | 30.3 µM (inactive) | 13.7 µM (inactive) | 13.8 µM (inactive) | 21.8 µM (inactive) | 19.8 µM (inactive) | 16.9 µM (inactive) | 23.7 µM (inactive) | 12.6 µM (inactive)
6 | COc1ccc2c(c1)OCC1=C2Oc2ccccc2C1 |  |  | 40.2 µM (inactive) | 31.2 µM (inactive) |  | 30.1 µM (inactive) | 50.4 µM (inactive) | 23.1 µM (inactive) |  | 22.1 µM (inactive) | 33.6 µM (inactive) | 53.2 µM (inactive) | 30.2 µM (inactive) | > 100 µM (inactive) | 36.1 µM (inactive) | 33.5 µM (inactive) |  | 55.6 µM (inactive) | 22.5 µM (inactive) | 34.8 µM (inactive)
7 | CCOC(=O)c1c(SCc2cc(=O)[nH]c(=O)[nH]2)n(-c2ccccc2)c(=S)n(-c2ccccc2)c1=O | > 100 µM (inactive) | > 100 µM (inactive) | > 100 µM (inactive) | > 100 µM (inactive) |  | > 100 µM (inactive) | > 100 µM (inactive) | > 100 µM (inactive) | > 100 µM (inactive) | > 100 µM (inactive) | > 100 µM (inactive) |  | > 100 µM (inactive) | > 100 µM (inactive) | > 100 µM (inactive) | > 100 µM (inactive) | > 100 µM (inactive) | > 100 µM (inactive) | > 100 µM (inactive) | > 100 µM (inactive)
8 | CSC1=N/C(=C\c2ccc(C)cc2)C(=O)N1CN1CCOCC1 |  | 41.4 µM (inactive) | > 100 µM (inactive) |  | > 100 µM (inactive) | > 100 µM (inactive) | 20.2 µM (inactive) | 23.7 µM (inactive) | 37.5 µM (inactive) | 34.3 µM (inactive) | > 100 µM (inactive) | 92.7 µM (inactive) | 40 µM (inactive) | > 100 µM (inactive) |  | 40.8 µM (inactive) | 31.2 µM (inactive) | 45.6 µM (inactive) | 42.7 µM (inactive) | 58.9 µM (inactive)
9 | CCOC(=O)CC/C(C)=N\n1c(Cc2ccc(Cl)cc2)n[nH]c1=O | 86.1 µM (inactive) |  | > 100 µM (inactive) | > 100 µM (inactive) |  | 14.3 µM (inactive) | > 100 µM (inactive) | > 100 µM (inactive) | > 100 µM (inactive) | > 100 µM (inactive) | > 100 µM (inactive) | > 100 µM (inactive) | > 100 µM (inactive) | > 100 µM (inactive) | > 100 µM (inactive) | > 100 µM (inactive) | > 100 µM (inactive) | > 100 µM (inactive) |  | > 100 µM (inactive)
10 | CSc1c(C#N)c(O)n(-c2ccc(Cl)cc2)c(=O)c1C(C)=O | > 100 µM (inactive) | 17 µM (inactive) | 42.6 µM (inactive) | > 100 µM (inactive) |  | 45.7 µM (inactive) | 24.9 µM (inactive) | 26 µM (inactive) | 88.5 µM (inactive) | 25.5 µM (inactive) | 48.3 µM (inactive) | 31.5 µM (inactive) | 44.7 µM (inactive) | 23.3 µM (inactive) | 27.1 µM (inactive) | > 100 µM (inactive) | 52.4 µM (inactive) | 42.4 µM (inactive) | 24.2 µM (inactive) | > 100 µM (inactive)
11 | O=C1N/C(=N\C2CCCCC2)C2(CCN(CCCC3(c4ccc(F)cc4)OCCO3)CC2)N1c1ccccc1 |  | 29 µM (inactive) | 15.7 µM (inactive) | 15.1 µM (inactive) |  | 16.7 µM (inactive) | 12.6 µM (inactive) | 23 µM (inactive) | 18.5 µM (inactive) |  | 11.8 µM (inactive) | 17.9 µM (inactive) | 21.2 µM (inactive) | 16.7 µM (inactive) | 17 µM (inactive) | 15.9 µM (inactive) | 21.2 µM (inactive) | 24.8 µM (inactive) | 18.5 µM (inactive) | 19.3 µM (inactive)
12 | CCCCCCCCCCCCCCCCCCNc1ccn(C2OC(COP(=O)(O)OCC3OC(n4ccc(NC(=O)CCCCCCCCCCCCCCCCC)nc4=O)C(OC(C)=O)C3OC(C)=O)C(OC(C)=O)C2OC(C)=O)c(=O)n1 (stereo not given) | > 100 µM (inactive) | > 100 µM (inactive) | > 100 µM (inactive) | > 100 µM (inactive) |  | > 100 µM (inactive) | > 100 µM (inactive) | > 100 µM (inactive) | > 100 µM (inactive) | 0.0551 µM (active) | > 100 µM (inactive) | > 100 µM (inactive) | > 100 µM (inactive) | > 100 µM (inactive) | > 100 µM (inactive) | > 100 µM (inactive) | > 100 µM (inactive) | > 100 µM (inactive) | > 100 µM (inactive) | > 100 µM (inactive)
13 | C/C=C/C(O)P1(=O)N(Cc2ccccc2)[C@@H]2CCCC[C@H]2N1Cc1ccccc1 (stereo not given in full) | > 25 µM (inactive) | > 25 µM (inactive) | > 25 µM (inactive) | > 25 µM (inactive) |  | > 25 µM (inactive) | > 25 µM (inactive) |  | > 25 µM (inactive) | > 25 µM (inactive) | > 25 µM (inactive) | > 25 µM (inactive) | > 25 µM (inactive) | > 25 µM (inactive) | > 25 µM (inactive) | > 25 µM (inactive) | > 25 µM (inactive) | > 25 µM (inactive) | > 25 µM (inactive) | > 25 µM (inactive)
14 | CC(=O)O[C@H]1CCn2c3c(c(C)c21)C(=O)C(N1CC1)=C(C)C3=O | 3.52 µM (inactive) | > 10 µM (inactive) | > 10 µM (inactive) | > 10 µM (inactive) |  | > 10 µM (inactive) |  | > 10 µM (inactive) | > 10 µM (inactive) | > 10 µM (inactive) | > 10 µM (inactive) | 1.68 µM (inactive) | > 10 µM (inactive) | > 10 µM (inactive) | > 10 µM (inactive) | > 10 µM (inactive) | 5.51 µM (inactive) | > 10 µM (inactive) | 6.12 µM (inactive) | > 10 µM (inactive)
15 | C/C(=N\N=C(/S)N1CC2CCC(CC2)C1)c1ccncn1 | < 0.01 µM (active) | < 0.01 µM (active) | < 0.01 µM (active) | < 0.01 µM (active) |  | 0.213 µM (active) | < 0.01 µM (active) | < 0.01 µM (active) | 0.198 µM (active) | < 0.01 µM (active) | < 0.01 µM (active) | < 0.01 µM (active) | < 0.01 µM (active) | < 0.01 µM (active) | < 0.01 µM (active) | < 0.01 µM (active) | < 0.01 µM (active) | < 0.01 µM (active) | < 0.01 µM (active) | < 0.01 µM (active)
